The test system of assay [1] is human regulatory T-lymphocytes (CD4+CD25+). The assay can be described thus: Gene expression of TGF-β1 (TGF-β1-mRNA) in human regulatory T-lymphocytes, quantitative RT-PCR. It is filed as cell-based. To be noted: PHA/PMA plus inhibitor. As to the method:
Induction of the Gene Expression of TGF-β1 in Human Regulatory T-Lymphocytes (CD4^+CD25^+) After an Incubation with the Inhibitor Phebestin
The T-cells were incubated for 24 h without adding (control), with adding PHA and PMA or with simultaneously adding PHA/PMA and phebestin. PHA (phythemagglutinine) and PMA (phorbol myristate acetate) were used as mito-gens and agents stimulating the proliferation. Subsequently, the content of TGF-β1-mRNA was determined by quantitative RT-PCR and using the i-cycler.
Induction of the Gene Expression of TGF-β1 in Human Regulatory T-Lymphocytes (CD4^+CD25^+) after an incubation with the inhibitor PAQ-22
The T-cells were incubated for 24 h without adding (control), with adding PHA and PMA and with simultaneously adding PHA/PMA and PAQ-22. PHA (phythemagglutinine) and PMA (phorbol myristate acetate) were used as mito-gens and agents stimulating the proliferation. Subsequently, the content of TGF-β1-mRNA was determined by quantitative RT-PCR and using the i-cycler.
Induction of the Gene Expression of TGF-β1 in Human Regulatory T-Lymphocytes (CD4^+CD25^+) After an Incubation with the Aminopeptidase Inhibitor RB3014
The T-cells were incubated for 72 h without adding (control), with adding PHA and PMA and with simultaneously adding PHA/PMA and RB3014. PHA (phythemagglutinine) and PMA (phorbol myristate acetate) were used as mito-gens and agents stimulating the proliferation. Subsequently, the content of TGF-β1-mRNA was determined by quantitative RT-PCR and using the i-cycler.

For assay [2] the test system is unchanged. The assay can be described thus: Surface expression of TGF-β1 on human regulatory T-lymphocytes, flow cytometry with anti-TGF-β1 antibody. It is filed as cell-based. The note with it: 24 h incubation, PHA/PMA plus inhibitor; results only in FIG. 1. As to the method: Induction of the Surface Expression of TGF-β1 on Human Regulatory T-Lymphocytes (CD4^+CD25^+) After Incubation with the Inhibitor Phebestin
The T-cells were incubated for 24 h without adding (control), with adding PHA and PMA and with simultaneously adding PHA/PMA and phebestin. PHA (phythemagglutinine) and PMA (phorbol myristate acetate) were used as mito-gens and agents stimulating the proliferation. Subsequently, the surface expression of TGF-β1 was measured by flow cytometry using a commercially available polyclonal anti-TGF-β1 antibody (chicken anti-human; R & D Systems).
(A flow cytometer gives signals particle by particle.)

[3] abbreviates: 24 h incubation, results only in FIG. 2, FIG. 3.

The structures appear in SMILES notation.

As to `CCc1cccc(CC)c1-n1c(=O)[nH]c2ccccc2c1=O` [PAQ-22], in assay [1] (setting [3]), the “gene expression of TGF-β1 (content of TGF-β1-mRNA)” value (from here on “gene expression of TGF-β1”) is “Induction”.
Turning to `CC(C)[C@H](NC(=O)[C@@H](O)[C@H](N)Cc1ccccc1)C(=O)N[C@@H](Cc1ccccc1)C(=O)O` [Phebestin, phebestin], the “surface expression of TGF-β1” value in assay [2] is “Induction”. For the same molecule, in assay [1] (setting [3]), the “gene expression of TGF-β1” value is recorded as “Induction”.
With `CC(N)P(=O)(O)CC(Cc1ccccc1)C(=O)NC(Cc1ccccc1)C(=O)O` (stereo not shown) [RB3014], in assay [1] (72 h incubation, results only in FIG. 4), the “gene expression of TGF-β1” value is “Induction”.
